Measurements reported in ChEMBL document CHEMBL3882724 (2013).
pIC50: −log10 of the molar value.

Assays:
[1] = Half life in rat liver microsomes at 1 uM by LC-MS/MS analysis
[2] = biological target: T1, Steroid 17-alpha-hydroxylase/17,20 lyase (Homo sapiens, UniProt P05093); test: Inhibition of CYP17 in human testicular microsomes using 17alpha-hydroxypregnenolone as substrate assessed as decrease in DHEA levels at 10 nM after 90 mins by ELISA relative to control; set-up: species or system Testis; settings: 1.5 h
T1 sequence (P05093 whole entry): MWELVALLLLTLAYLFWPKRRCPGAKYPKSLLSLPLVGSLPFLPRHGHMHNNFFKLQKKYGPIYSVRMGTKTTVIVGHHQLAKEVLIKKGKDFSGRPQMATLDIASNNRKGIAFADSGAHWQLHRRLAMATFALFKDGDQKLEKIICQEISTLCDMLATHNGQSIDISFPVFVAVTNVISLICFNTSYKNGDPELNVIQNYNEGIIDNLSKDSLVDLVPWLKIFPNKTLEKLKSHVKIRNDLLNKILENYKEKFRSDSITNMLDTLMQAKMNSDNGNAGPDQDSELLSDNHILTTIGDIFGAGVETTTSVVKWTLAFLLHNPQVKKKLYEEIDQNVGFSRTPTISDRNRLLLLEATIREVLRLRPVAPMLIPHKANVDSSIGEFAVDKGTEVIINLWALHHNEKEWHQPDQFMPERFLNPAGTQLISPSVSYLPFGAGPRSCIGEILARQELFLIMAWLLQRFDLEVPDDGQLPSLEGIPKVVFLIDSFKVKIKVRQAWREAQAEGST

[3] = Half life in human liver microsomes at 1 uM by LC-MS/MS analysis
[4] = biological target: T1, Steroid 17-alpha-hydroxylase/17,20 lyase; test: Inhibition of CYP17 in human testicular microsomes using 17alpha-hydroxypregnenolone as substrate assessed as decrease in DHEA levels after 90 mins by ELISA; set-up: species or system Testis
[5] = biological target: T2, CYP21 (steroid 21-hydroxylase) (Homo sapiens, UniProt P08686); test: Inhibition of human CYP21 transfected in HEK293 cells assessed as decrease in conversion of progesterone to 11-deoxycorticosterone preincubated for 5 hrs followed by progesterone addition measured after 20 hrs by ELISA; assay type: cell-based; set-up: concentration or dose not given beside the values; settings: HEK293 cells transfected with human CYP21, probe progesterone
T2 sequence (P08686 whole entry): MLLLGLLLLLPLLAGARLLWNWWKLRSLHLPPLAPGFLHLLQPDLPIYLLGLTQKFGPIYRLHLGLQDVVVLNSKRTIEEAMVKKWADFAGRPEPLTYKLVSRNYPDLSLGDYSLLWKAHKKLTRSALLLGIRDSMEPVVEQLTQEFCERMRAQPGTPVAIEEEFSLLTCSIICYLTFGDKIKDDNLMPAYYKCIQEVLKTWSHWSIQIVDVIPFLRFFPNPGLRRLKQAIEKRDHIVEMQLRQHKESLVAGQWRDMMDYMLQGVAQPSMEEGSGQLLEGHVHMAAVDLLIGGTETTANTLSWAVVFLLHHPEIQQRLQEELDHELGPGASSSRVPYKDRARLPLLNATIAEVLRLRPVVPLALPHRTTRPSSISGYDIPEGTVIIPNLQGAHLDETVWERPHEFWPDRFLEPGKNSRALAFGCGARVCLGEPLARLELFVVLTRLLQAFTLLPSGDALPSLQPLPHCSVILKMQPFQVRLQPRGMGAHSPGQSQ

[6] = biological target: T1, Steroid 17-alpha-hydroxylase/17,20 lyase; test: Inhibition of CYP17 in human H295R cells assessed as decrease in testosterone levels after 24 hrs by ELISA; assay type: cell-based

Row | Structure (SMILES) | half-life at 1 µM [1] | inhibition at 0.01 µM [2] | half-life at 1 µM [3] | pIC50 [4] | inhibition at 20 h [5] | pIC50 [6]
1 | CCCOc1cncc(C2=CC[C@H]3[C@@H]4CCN5CCCCC[C@]5(C)[C@H]4CC[C@]23C)c1 | 10 to 60 min | 50 to 80% | 10 to 60 min | – | – | –
2 | COc1cncc(C2=CC[C@H]3[C@@H]4CC(=O)C5CCCC[C@]5(C)[C@H]4CC[C@]23C)c1 (stereo partly drawn) | 1 to 10 min | – | 1 to 10 min | ≥ 7.96 | – | –
3 | C[C@]12CC(=O)C[C@@H]1CC[C@@H]1[C@@H]2CC[C@]2(C)C(n3ccnc3)=CC[C@@H]12 | 1 to 10 min | ≥ 80% | ≥ 50 min | ≥ 7.96 | – | –
4 | COc1cncc(C2=CC[C@H]3[C@@H]4CC[C@H]5COCCC[C@]5(C)[C@H]4CC[C@]23C)c1 | 1 to 10 min | 50 to 80% | 1 to 10 min | ≥ 7.96 | – | –
5 | COc1cncc(C2=CC[C@H]3[C@@H]4CC[C@H]5CCOCC[C@]5(C)[C@H]4CC[C@]23C)c1 | 1 to 10 min | 50 to 80% | 1 to 10 min | ≥ 7.96 | – | –
6 | Cc1cncc(C2=CC[C@H]3[C@@H]4CCN5C(=O)CCCC[C@]5(C)[C@H]4CC[C@]23C)c1 | 1 to 10 min | 50 to 80% | 1 to 10 min | ≥ 7.96 | – | –
7 | C[C@]12CCNC(=O)C[C@@H]1CC[C@@H]1[C@@H]2CC[C@]2(C)C(n3ccnc3)=CC[C@@H]12 | 10 to 60 min | ≥ 80% | ≥ 50 min | ≥ 7.96 | – | –
8 | C[C@]12CCCCC1C(O)C[C@@H]1[C@@H]2CC[C@]2(C)C(n3ccnc3)=CC[C@@H]12 (stereo partly drawn) | – | 50 to 80% | 1 to 50 min | ≥ 7.96 | – | –
9 | CCc1cncc(C2=CC[C@H]3[C@@H]4CCN5C(=O)CCCC[C@]5(C)[C@H]4CC[C@]23C)c1 | 1 to 10 min | ≥ 80% | 1 to 10 min | ≥ 7.96 | – | –
10 | C[C@]12CCOCC[C@@H]1CC[C@@H]1[C@@H]2CC[C@]2(C)C(c3cccnc3)=CC[C@@H]12 | 1 to 10 min | ≥ 80% | 1 to 10 min | ≥ 7.96 | – | –
11 | C[C@]12CCNC(=O)C=C1CC[C@@H]1[C@@H]2CC[C@]2(C)C(n3ccnc3)CC[C@@H]12 (stereo partly drawn) | 10 to 60 min | ≥ 80% | ≥ 50 min | ≥ 7.96 | – | –
12 | C[C@]12CC[C@H]3[C@@H](CC=C4C[C@@H](O)CC[C@@]43C)C1=CC=C2n1ccnc1 | – | ≥ 80% | ≥ 50 min | ≥ 7.96 | – | –
13 | C[C@]12CC[C@H]3[C@@H](CCC45CC4C(O)CC[C@]35C)[C@@H]1CC=C2c1cccnc1 (stereo partly drawn) | – | – | – | ≥ 7.96 | ≥ 50% | ≥ 7.82
14 | Cc1cncc(C2=CC[C@H]3[C@@H]4CC(=O)C5CCCC[C@]5(C)[C@H]4CC[C@]23C)c1 (stereo partly drawn) | 1 to 10 min | – | 1 to 10 min | ≥ 7.96 | – | –
15 | Cc1cncc(C2=CC[C@H]3[C@@H]4CC[C@H]5COC(=O)CC[C@]5(C)[C@H]4CC[C@]23C)c1 | 1 to 10 min | 1 to 50% | 1 to 10 min | – | – | –
16 | C[C@]12CCCOCC1CCC1C2CC[C@]2(C)C(c3cccnc3)=CC[C@@H]12 (single isomer, unassigned) | 1 to 10 min | ≥ 80% | 1 to 10 min | ≥ 7.96 | – | –
17 | Cc1cncc(C2=CC[C@H]3[C@@H]4CC[C@H]5COCCC[C@]5(C)[C@H]4CC[C@]23C)c1 | 1 to 10 min | 50 to 80% | 1 to 10 min | ≥ 7.96 | – | –
18 | CC(=O)N[C@@H]1CC[C@@]2(C)C(=CC[C@H]3C4=CC=C(c5cccnc5)[C@@]4(C)CC[C@@H]32)C1 | – | – | 1 to 50 min | – | ≥ 50% | ≥ 7.82
19 | C[C@]12CCC(F)CC1=CC[C@@H]1[C@@H]2CC[C@]2(C)C(c3cncc(F)c3)=CC[C@@H]12 (stereo partly drawn) | – | – | ≥ 50 min | ≥ 7.96 | – | ≥ 7.82

Row | Structure (SMILES) | half-life at 1 µM [1] | inhibition at 0.01 µM [2] | half-life at 1 µM [3] | pIC50 [4] | inhibition at 20 h [5] | pIC50 [6]
20 | CC1=C2CC[C@@H]3[C@H](CC[C@]4(C)C(c5cccnc5)=CC[C@@H]34)[C@@]2(C)CCC1=O | – | – | – | ≥ 7.96 | ≥ 50% | ≥ 7.82
21 | CN(C)CC(=O)O[C@H]1CC[C@@]2(C)C(=CC[C@H]3C4=CC=C(c5cccnc5)[C@@]4(C)CC[C@@H]32)C1 | – | – | – | – | ≥ 50% | 7.00 to 7.82
22 | COc1cncc(C2=CC[C@H]3[C@@H]4CCN5C(=O)CCCC[C@]5(C)[C@H]4CC[C@]23C)c1 | 1 to 10 min | ≥ 80% | 1 to 10 min | ≥ 7.96 | – | –
23 | Cc1cncc(C2=CC[C@H]3[C@@H]4CC(O)C5CCCC[C@]5(C)[C@H]4CC[C@]23C)c1 (stereo partly drawn) | 1 to 10 min | – | 1 to 10 min | ≥ 7.96 | – | –
24 | CC1C(O)CC[C@@]2(C)C1CC[C@@H]1[C@@H]2CC[C@]2(C)C(c3cccnc3)=CC[C@@H]12 (stereo partly drawn) | – | – | – | ≥ 7.96 | 10 to 50% | ≥ 7.82
25 | C[C@]12CC[C@H]3[C@@H](CC=C4C[C@@H](O)CC[C@@]43C)C1=CC=C2c1cncc(C(F)F)c1 | – | – | – | – | < 10% | 7.00 to 7.82
26 | CC(C)C(=O)N[C@H]1CC[C@@]2(C)C(CC[C@@H]3[C@@H]2CC[C@]2(C)C(c4cccnc4)=CC[C@@H]32)C1 (stereo partly drawn) | – | – | 1 to 50 min | – | ≥ 50% | ≥ 7.82
27 | C[C@@]1(O)CC[C@@]2(C)C(CC[C@@H]3[C@@H]2CC[C@]2(C)C(c4cncc(F)c4)=CC[C@@H]32)C1 (stereo partly drawn) | – | – | 1 to 50 min | ≥ 7.96 | – | ≥ 7.82
28 | C[C@]12CCCCC[C@@H]1CC[C@@H]1[C@@H]2CC[C@]2(C)C(n3ccnc3)=CC[C@@H]12 | 10 to 60 min | 50 to 80% | 10 to 60 min | ≥ 7.96 | – | –
29 | Cc1ccncc1C1=CC=C2[C@@H]3CC=C4C[C@@H](O)CC[C@]4(C)[C@H]3CC[C@]12C | – | – | 1 to 50 min | – | ≥ 50% | 7.00 to 7.82
30 | Cc1cn(C2=CC[C@H]3[C@@H]4CCC5=CC(=O)NCC[C@]5(C)[C@H]4CC[C@]23C)cn1 | 10 to 60 min | 50 to 80% | 10 to 60 min | ≥ 7.96 | – | –
31 | C[C@]12CCNC(=O)C=C1CC[C@@H]1[C@@H]2CC[C@]2(C)C(n3ncnn3)=CC[C@@H]12 | 1 to 10 min | ≥ 80% | 1 to 10 min | – | – | –
32 | C[C@]12CCC(=O)CCC1=CC[C@@H]1[C@@H]2CC[C@]2(C)C(n3ccnc3)=CC[C@@H]12 | – | ≥ 80% | 1 to 50 min | ≥ 7.96 | – | –
33 | CN1C(=O)COC[C@@]2(C)C1CC[C@@H]1[C@@H]2CC[C@]2(C)C(c3cccnc3)=CC[C@@H]12 (stereo partly drawn) | 1 to 10 min | 50 to 80% | 1 to 10 min | ≥ 7.96 | – | –
34 | CCc1cncc(C2=CC[C@H]3[C@@H]4CCN5CCCCC[C@]5(C)[C@H]4CC[C@]23C)c1 | 1 to 10 min | 1 to 50% | 1 to 10 min | – | – | –
35 | C[C@]12CC[C@H]3[C@@H](CC[C@H]4C[C@@H](O)CC[C@@]43C)C1=CC=C2n1ccnn1 | 1 to 10 min | – | 1 to 10 min | – | – | –
36 | CCOc1cncc(C2=CC[C@H]3[C@@H]4CC[C@H]5COCCC[C@]5(C)[C@H]4CC[C@]23C)c1 | 1 to 10 min | 50 to 80% | 1 to 10 min | ≥ 7.96 | – | –
37 | C[C@]12CCCCC1=CC[C@@H]1[C@@H]2CC[C@]2(C)C(c3cccnc3)=CC[C@@H]12 | 1 to 10 min | 50 to 80% | 1 to 10 min | – | – | –
